# In patent publication US6737383B1, “Herbicidal oxadiazolidines” (priority 1999, dated 2004):
# Assays:
# crabgrass = assay: Test B pre/postemergence crabgrass; format: in vivo, Digitaria sanguinalis
# Method in brief: (§1)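 Herbicidal effect was estimated by eye on a ten-point control scale after plants spent twelve to sixteen days in a greenhouse following soil or foliar treatment. Foliar sprays targeted plants at one to four leaves; all doses were formulated in a non-phytotoxic solvent with surfactant.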
# soybean = assay: Test B pre/postemergence soybean; format: in vivo, Glycine max
# Method in brief: as §1
# wheat = assay: Test B pre/postemergence wheat; format: in vivo, Triticum aestivum
# Method in brief: as §1
# wild oat = assay: Test B pre/postemergence wild oat; format: in vivo, Avena fatua
# Method in brief: as §1
# smallflower flatsedge = assay: Test B flood test smallflower flatsedge; format: in vivo, Cyperus difformis; details: for Plant response rating, S. Flatsedge (0 to 10 scale, 0 is no effect, 10 is complete control) / S. Flatsedge plant response rating (0 to 10 scale, 0 is no effect, 10 is complete control): visual evaluation after twelve to sixteen days; for S. Flatsedge plant response rating (0 to 10 scale, 0 is no effect, 10 is complete control): under heading Pre-emergence
# Method in brief: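 Each value is a visual injury score relative to controls, with 10 meaning complete control and 0 no effect. Evaluation took place twelve to sixteen days after the 2-leaf-stage plants were treated and kept in the greenhouse.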
# [1] = Postemergence, Rate 62 g/ha, scale 0 to 10, 0 is no effect, 10 is complete control
# [2] = Postemergence, Rate 125 g/ha, scale of 0 to 10 where 0 is no effect and 10 is complete control
# [3] = Preemergence, Rate 62 g/ha, scale of 0 to 10 where 0 is no effect and 10 is complete control
# [4] = Preemergence, Rate 125 g/ha, scale of 0 to 10 where 0 is no effect and 10 is complete control
# [5] = Preemergence, Rate 250 g/ha, scale 0 to 10 (0 no effect, 10 complete control)
# [6] = Preemergence, Rate 500 g/ha, scale of 0 to 10 where 0 is no effect and 10 is complete control
# [7] = Rate 500 g/ha, Postemergence, scale 0 to 10, 0 is no effect, 10 is complete control
# [8] = Rate 62 g/ha, flood test species, Pre-emergence
# [9] = Rate 125 g/ha, flood test species
# [10] = Rate 250 g/ha, Pre-emergence (flood test species), scale 0 to 10, 0 is no effect, 10 is complete control
# [11] = Preemergence, Rate 31 g/ha, visual rating, scale 0 to 10 (0 no effect, 10 complete control)
# [12] = Preemergence, Rate 250 g/ha, scale of 0 to 10 where 0 is no effect and 10 is complete control
# [13] = Rate 62 g/ha, Postemergence, scale of 0 to 10 where 0 is no effect and 10 is complete control
# [14] = Rate 125 g/ha, Postemergence, scale 0 to 10
# [15] = Rate 125 g/ha, Preemergence, scale of 0 to 10 where 0 is no effect and 10 is complete control
# [16] = Postemergence, Rate 250 g/ha, scale 0 to 10
# [17] = Preemergence, Rate 250 g/ha, scale 0 to 10, 0 is no effect, 10 is complete control
# [18] = Preemergence, Rate 500 g/ha, scale 0 to 10, 0 is no effect, 10 is complete control
# [19] = Rate 62 g/ha, Postemergence, scale 0 to 10 (0 no effect, 10 complete control)
# [20] = Rate 125 g/ha, Postemergence, scale 0 to 10, 0 is no effect, 10 is complete control
smiles,measurement,setting,value
C#CC(C)n1c(=O)on(C(=O)N(c2ccc(Cl)cc2)C(C)C)c1=O (racemic) [Compound 658],"Plant response rating, Crabgrass",crabgrass; [1],0
same,Crabgrass plant response rating,crabgrass; [2],2
same,Crabgrass plant response rating,"crabgrass; Postemergence, Rate 250 g/ha, scale of 0 to 10, 0 is no effect, 10 is complete control",2
same,Crabgrass plant response rating,crabgrass; [3],3
same,Crabgrass plant response rating,crabgrass; [4],7
same,"Plant response rating, Crabgrass",crabgrass; [5],8
same,"Plant response rating, Crabgrass",crabgrass; [6],9
same,"Plant response rating, Soybean",soybean; [1],2
same,Soybean plant response rating,soybean; [2],4
same,Soybean plant response rating,soybean; [3],0
same,Soybean plant response rating,soybean; [4],0
same,"Plant response rating, Soybean",soybean; [5],0
same,"Plant response rating, Soybean",soybean; [6],3
same,Soybean plant response rating,soybean; [7],4
same,"Plant response rating, Wheat",wheat; [1],0
same,Wheat plant response rating,wheat; [2],0
same,Wheat plant response rating,wheat; [3],0
same,Wheat plant response rating,wheat; [4],0
same,"Plant response rating, Wheat",wheat; [5],0
same,"Plant response rating, Wheat",wheat; [6],3
same,Wheat plant response rating,wheat; [7],0
same,"Plant response rating, Wild oats",wild oat; [1],1
same,Wild oats plant response rating,wild oat; [2],1
same,Wild oats plant response rating,wild oat; [3],0
same,Wild oats plant response rating,wild oat; [4],2
same,"Plant response rating, Wild oats",wild oat; [5],3
same,"Plant response rating, Wild oats",wild oat; [6],4
same,Wild oats plant response rating,wild oat; [7],2
same,"Plant response rating, S. Flatsedge (0 to 10 scale, 0 is no effect, 10 is complete control)",smallflower flatsedge; [8],0
same,"S. Flatsedge plant response rating (0 to 10 scale, 0 is no effect, 10 is complete control)",smallflower flatsedge; [9],0
same,S. Flatsedge plant response rating,smallflower flatsedge; [10],0
same,S. Flatsedge plant response rating,"smallflower flatsedge; Rate 500 g/ha, Pre-emergence section of Table B, 0 to 10 scale (0 no effect, 10 complete control)",0
CC(=O)Cn1c(=O)on(C(=O)N(c2ccc(F)cc2)C(C)C)c1=O [Compound 217],Crabgrass plant response rating,crabgrass; [11],0
same,Crabgrass plant response rating,crabgrass; [3],3
same,Crabgrass plant response rating,crabgrass; [12],8
same,Crabgrass plant response rating,"crabgrass; Rate 31 g/ha, Postemergence, scale 0 to 10",0
same,Crabgrass plant response rating,crabgrass; [13],0
same,Crabgrass plant response rating,crabgrass; [14],2
same,Crabgrass plant response rating,crabgrass; [15],4
same,"Plant response rating (0 to 10; 0 is no effect, 10 is complete control), Crabgrass","crabgrass; Rate 250 g/ha, Postemergence",3
same,Soybean plant response rating,soybean; [11],0
same,Soybean plant response rating,soybean; [3],0
same,Soybean plant response rating,soybean; [12],0
same,Soybean plant response rating,soybean; [13],1
same,Soybean plant response rating,soybean; [14],1
same,Soybean plant response rating,soybean; [15],0
same,"Plant response rating (0 to 10; 0 is no effect, 10 is complete control), Soybean","soybean; Rate 250 g/ha, Postemergence",1
same,Wheat plant response rating,wheat; [11],0
same,Wheat plant response rating,wheat; [3],0
same,Wheat plant response rating,wheat; [12],8
same,Wheat plant response rating,wheat; [13],0
same,Wheat plant response rating,wheat; [14],2
same,Wheat plant response rating,wheat; [15],3
same,"Plant response rating (0 to 10; 0 is no effect, 10 is complete control), Wheat","wheat; Rate 250 g/ha, Postemergence",3
same,Wild oats plant response rating,wild oat; [11],0
same,Wild oats plant response rating,wild oat; [3],0
same,Wild oats plant response rating,wild oat; [12],2
same,Wild oats plant response rating,wild oat; [13],0
same,Wild oats plant response rating,wild oat; [14],0
same,Wild oats plant response rating,wild oat; [15],0
same,"Plant response rating (0 to 10; 0 is no effect, 10 is complete control), Wild oats","wild oat; Rate 250 g/ha, Postemergence",0
same,S. Flatsedge plant response rating,"smallflower flatsedge; Rate 31 g/ha, Pre-emergence section (flood test species), scale 0 to 10",0
same,S. Flatsedge plant response rating,"smallflower flatsedge; Rate 62 g/ha, headed Pre-emergence (flood test species), scale 0 to 10 (0 no effect, 10 complete control)",0
same,S. Flatsedge plant response rating,"smallflower flatsedge; Rate 125 g/ha, Pre-emergence, flood test species, scale 0 to 10 where 0 is no effect and 10 is complete control",0
same,S. Flatsedge plant response rating,"smallflower flatsedge; Rate 250 g/ha, Pre-emergence, flood-test species, scale 0 to 10, 0 is no effect, 10 is complete control",0
CC(C)N(C(=O)n1oc(=O)n(CC2=NOCC2)c1=O)c1ccc(F)cc1 [Compound 466],Crabgrass plant response rating,crabgrass; [16],9
same,Crabgrass plant response rating,"crabgrass; Postemergence, Rate 500 g/ha, scale of 0 to 10 where 0 is no effect and 10 is complete control",9
same,"Plant response rating, Crabgrass",crabgrass; [3],6
same,"Plant response rating, Crabgrass",crabgrass; [4],9
same,Crabgrass plant response rating,crabgrass; [17],10
same,Crabgrass plant response rating,crabgrass; [18],10
same,Crabgrass plant response rating,crabgrass; [19],9
same,Crabgrass plant response rating,crabgrass; [20],9
same,Soybean plant response rating,soybean; [16],4
same,"Plant response rating, Soybean",soybean; [3],0
same,"Plant response rating, Soybean",soybean; [4],2
same,Soybean plant response rating,soybean; [17],2
same,Soybean plant response rating,soybean; [18],4
same,Soybean plant response rating,soybean; [19],4
same,Soybean plant response rating,soybean; [20],4
same,Wheat plant response rating,wheat; [16],0
same,"Plant response rating, Wheat",wheat; [3],0
same,"Plant response rating, Wheat",wheat; [4],0
same,Wheat plant response rating,wheat; [17],0
same,Wheat plant response rating,wheat; [18],1
same,Wheat plant response rating,wheat; [19],0
same,Wheat plant response rating,wheat; [20],0
same,Wild oats plant response rating,wild oat; [16],0
same,"Plant response rating, Wild oats",wild oat; [3],0
same,"Plant response rating, Wild oats",wild oat; [4],0
same,Wild oats plant response rating,wild oat; [17],3
same,Wild oats plant response rating,wild oat; [18],7
same,Wild oats plant response rating,wild oat; [19],0
same,Wild oats plant response rating,wild oat; [20],0
same,"Plant response rating, S. Flatsedge (0 to 10 scale, 0 is no effect, 10 is complete control)",smallflower flatsedge; [8],0
same,"S. Flatsedge plant response rating (0 to 10 scale, 0 is no effect, 10 is complete control)",smallflower flatsedge; [9],0
same,S. Flatsedge plant response rating,smallflower flatsedge; [10],0
same,S. Flatsedge plant response rating,"smallflower flatsedge; Rate 500 g/ha, Pre-emergence, flood test species, scale 0 to 10 (0 no effect, 10 complete control)",0
